Measurements: patent publication US9993494B2, “Compositions and methods for treating fibrotic disease” (eFFECTOR Therapeutics, Inc., priority 2014, dated 2018)

Test system: normal human lung fibroblasts
Assay: Ribosomal profiling: translational efficiency in TGFβ-treated fibroblasts
Format: cell-based
Conditions: TGFβ-treated fibroblasts
In short: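 Cells lysed on ice after a cold PBS wash containing cycloheximide. Ribosome-protected fragments and total mRNA were prepared with the ARTseq kit and sequenced by RNA-Seq. Reads were trimmed, mapped to the human genome and counted uniquely over coding regions per gene, with low-count genes excluded before differential translational-efficiency analysis.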

CC(C)n1nc(-c2cc3cc(O)ccc3[nH]2)c2c(N)ncnc21 [PP242]
effect in renormalizing the translational profile of the gene (gene RPS6KA5 (ENSG00000100784)): + (+ = 0.9 to 1.5)
effect in renormalizing the translational profile of the gene (gene RPS7 (ENSG00000171863)): − (− = <0.9)
effect in renormalizing the translational profile of the gene (gene RPS8 (ENSG00000142937)): − (− = <0.9)
effect in renormalizing the translational profile of the gene (gene RPS9 (ENSG00000170889)): − (− = <0.9)
effect in renormalizing the translational profile of the gene (gene RPS10 (ENSG00000124614)): − (− = <0.9)
effect in renormalizing the translational profile of the gene (gene RPS11 (ENSG00000142534)): − (− = <0.9)
effect in renormalizing the translational profile of the gene (gene RPS12 (ENSG00000112306)): − (− = <0.9)
effect in renormalizing the translational profile of the gene (gene RPS13 (ENSG00000110700)): − (− = <0.9)
effect in renormalizing the translational profile of the gene (gene RPS14 (ENSG00000164587)): − (− = <0.9)
effect in renormalizing the translational profile of the gene (gene RPS15 (ENSG00000115268)): + (+ = 0.9 to 1.5)
effect in renormalizing the translational profile of the gene (gene RPS15A (ENSG00000134419)): + (+ = 0.9 to 1.5)
effect in renormalizing the translational profile of the gene (gene RPS16 (ENSG00000105193)): − (− = <0.9)
effect in renormalizing the translational profile of the gene (gene RPS18 (ENSG00000231500)): + (+ = 0.9 to 1.5)
effect in renormalizing the translational profile of the gene (gene RPS19 (ENSG00000105372)): − (− = <0.9)
effect in renormalizing the translational profile of the gene (gene RPS20 (ENSG00000008988)): − (− = <0.9)
effect in renormalizing the translational profile of the gene (gene RPS21 (ENSG00000171858)): − (− = <0.9)
effect in renormalizing the translational profile of the gene (gene RPS23 (ENSG00000186468)): − (− = <0.9)
effect in renormalizing the translational profile of the gene (gene RPS24 (ENSG00000138326)): − (− = <0.9)
effect in renormalizing the translational profile of the gene (gene RPS25 (ENSG00000118181)): − (− = <0.9)
effect in renormalizing the translational profile of the gene (gene RPS26 (ENSG00000197728)): − (− = <0.9)
effect in renormalizing the translational profile of the gene (gene RPS27 (ENSG00000177954)): − (− = <0.9)
effect in renormalizing the translational profile of the gene (gene RPS27A (ENSG00000143947)): − (− = <0.9)
effect in renormalizing the translational profile of the gene (gene RPS28 (ENSG00000233927)): + (+ = 0.9 to 1.5)
effect in renormalizing the translational profile of the gene (gene RPS29 (ENSG00000213741)): + (+ = 0.9 to 1.5)
effect in renormalizing the translational profile of the gene (gene RPSA (ENSG00000168028)): − (− = <0.9)
effect in renormalizing the translational profile of the gene (gene RTN2 (ENSG00000125744)): − (− = <0.9)
effect in renormalizing the translational profile of the gene (gene SEMA3A (ENSG00000075213)): − (− = <0.9)
effect in renormalizing the translational profile of the gene (gene SGIP1 (ENSG00000118473)): − (− = <0.9)
effect in renormalizing the translational profile of the gene (gene SH3BGR (ENSG00000185437)): − (− = <0.9)
effect in renormalizing the translational profile of the gene (gene SHC3 (ENSG00000148082)): − (− = <0.9)
effect in renormalizing the translational profile of the gene (gene SLC2A12 (ENSG00000146411)): − (− = <0.9)
effect in renormalizing the translational profile of the gene (gene SLC7A7 (ENSG00000155465)): − (− = <0.9)
effect in renormalizing the translational profile of the gene (gene SLC15A3 (ENSG00000110446)): − (− = <0.9)
effect in renormalizing the translational profile of the gene (gene SLC25A6 (ENSG00000169100)): − (− = <0.9)
effect in renormalizing the translational profile of the gene (gene SLC40A1 (ENSG00000138449)): − (− = <0.9)
effect in renormalizing the translational profile of the gene (gene SMO (ENSG00000128602)): − (− = <0.9)
effect in renormalizing the translational profile of the gene (gene SNRPA (ENSG00000077312)): − (− = <0.9)
effect in renormalizing the translational profile of the gene (gene SOX5 (ENSG00000134532)): − (− = <0.9)
effect in renormalizing the translational profile of the gene (gene SOX6 (ENSG00000110693)): − (− = <0.9)
effect in renormalizing the translational profile of the gene (gene SPATA6 (ENSG00000132122)): + (+ = 0.9 to 1.5)
effect in renormalizing the translational profile of the gene (gene STAMBPL1 (ENSG00000138134)): − (− = <0.9)
effect in renormalizing the translational profile of the gene (gene STS (ENSG00000101846)): − (− = <0.9)
effect in renormalizing the translational profile of the gene (gene SYNE2 (ENSG00000054654)): − (− = <0.9)
effect in renormalizing the translational profile of the gene (gene TAF1D (ENSG00000166012)): − (− = <0.9)
effect in renormalizing the translational profile of the gene (gene TDG (ENSG00000139372)): − (− = <0.9)
effect in renormalizing the translational profile of the gene (gene TEN1 (ENSG00000257949)): − (− = <0.9)
effect in renormalizing the translational profile of the gene (gene TET2 (ENSG00000168769)): − (− = <0.9)
effect in renormalizing the translational profile of the gene (gene TET3 (ENSG00000187605)): − (− = <0.9)
effect in renormalizing the translational profile of the gene (gene TGFBI (ENSG00000120708)): − (− = <0.9)
effect in renormalizing the translational profile of the gene (gene THBS3 (ENSG00000169231)): + (+ = 0.9 to 1.5)
effect in renormalizing the translational profile of the gene (gene THG1L (ENSG00000113272)): − (− = <0.9)
effect in renormalizing the translational profile of the gene (gene TIMM9 (ENSG00000100575)): − (− = <0.9)
effect in renormalizing the translational profile of the gene (gene TKT (ENSG00000163931)): − (− = <0.9)
effect in renormalizing the translational profile of the gene (gene TMTC1 (ENSG00000133687)): − (− = <0.9)
effect in renormalizing the translational profile of the gene (gene TOMM7 (ENSG00000196683)): − (− = <0.9)
effect in renormalizing the translational profile of the gene (gene TOP2A (ENSG00000131747)): − (− = <0.9)
effect in renormalizing the translational profile of the gene (gene TPGS1 (ENSG00000141933)): − (− = <0.9)
effect in renormalizing the translational profile of the gene (gene TPM2 (ENSG00000198467)): − (− = <0.9)
effect in renormalizing the translational profile of the gene (gene TPT1 (ENSG00000133112)): − (− = <0.9)
effect in renormalizing the translational profile of the gene (gene TRERF1 (ENSG00000124496)): − (− = <0.9)
effect in renormalizing the translational profile of the gene (gene UBA52 (ENSG00000221983)): − (− = <0.9)
effect in renormalizing the translational profile of the gene (gene UQCRB (ENSG00000156467)): − (− = <0.9)
effect in renormalizing the translational profile of the gene (gene UTRN (ENSG00000152818)): − (− = <0.9)
effect in renormalizing the translational profile of the gene (gene VIM (ENSG00000026025)): − (− = <0.9)
effect in renormalizing the translational profile of the gene (gene ZNF581 (ENSG00000171425)): − (− = <0.9)
effect in renormalizing the translational profile of the gene (gene ZNF608 (ENSG00000168916)): − (− = <0.9)
